Data on four molecules can be found in patent publication US20170008888A1 (KYORIN PHARMACEUTICAL CO., LTD., priority 2014, published 2017).

Type in all cases: binding
The target of one experiment is T1, ERK5 (Homo sapiens, UniProt Q13164).
T1 construct: screened for activity against several kinases in Jurkat cells; endogenous in cells; host or cells: Jurkat cell lysate
The experiment in a line: Probe-based (AX9989 acyl phosphate ATP probe) kinase profiling in Jurkat lysate: ERK5. The settings on record: for IC50: calculated from percent inhibition of AX9989 labeling and the screening concentration, Jurkat lysate; for inhibition at 1 µM: screening concentration 1.0 μM, read-out: Kinase inhibition % at indicated screening concentration: ERK5. How it is done: (§1) In this example, potency of the compounds as ERK5 inhibitors was assessed, and the compounds were screened for activity against several kinases in Jurkat cells.
(§2) Jurkat cell pellets were resuspended in four volumes of lysis buffer (50 mM HEPES pH 7.5, 150 mM NaCl, 0.1% Triton-X-100, 1% v/v phosphatase, inhibitor cocktail II [EMD/Calbiochem, #524625]), sonicated using a tip, sonicator, and Dounce homogenized. Lysate was cleared by centrifugation, at 16,000 g for 15 min., was gel filtered (BioRad 10DG) and MnCl2 was then added to a final concentration of 20 mM before treatment with the test compound and probe labeling. […] All compound treatments were performed at room temperature.
(§3) Acyl phosphate ATP probe (AX9989) labeling reactions were performed at room temperature with a final probe concentration of 5 μM after a 15 min pre-incubation of lysate with a test compound. All reactions were performed in duplicate, using 445 μl/sample at 5 mg/ml. Probe-labeled lysates were denatured and reduced (6 M urea, 10 mM DTT, 65° C., 15 min), alkylated (40 mM iodoacetamide, 37° C., 30 min, and gel filtered (Sephadex G25) into 10 mM ammonium bicarbonate, 2 M urea, 5 mM methionine. The desalted protein mixture was digested with trypsin (0.015 mg/ml) for 1 hr at 37° C., and desthiobiotinylated peptides were captured using a […] high-capacity streptavidin resin (Thermo Scientific). Captured peptides were then washed extensively using 150 μl/wash with three different wash buffers: (A) 3 times with 1% triton, 0.5% tergitol, 1 mM EDTA in PBS; (B) 18 times with PBS; and (C) 8 times with HPLC grade water. Peptides were eluted from the streptavidin beads using two 35-μL washes of a 50% CH3CN/water mixture containing 0.1% TFA at room temperature.
(§4) Kinase active site peptides were identified and quantified using LC/MS. Percent inhibition was calculated as the normalized decrease in the ESI-MS fragment intensities of probe-labeled peptides in samples incubated with the test compound compared to those without.
ERK5 IC50 values were calculated from the percent inhibition and the screening concentration.

Another experiment deals with T2, AurA (Homo sapiens, UniProt O14965).
T2 construct: screened for activity against several kinases in Jurkat cells; endogenous in cells; host or cells: Jurkat cell lysate
T2 sequence (O14965 1-403): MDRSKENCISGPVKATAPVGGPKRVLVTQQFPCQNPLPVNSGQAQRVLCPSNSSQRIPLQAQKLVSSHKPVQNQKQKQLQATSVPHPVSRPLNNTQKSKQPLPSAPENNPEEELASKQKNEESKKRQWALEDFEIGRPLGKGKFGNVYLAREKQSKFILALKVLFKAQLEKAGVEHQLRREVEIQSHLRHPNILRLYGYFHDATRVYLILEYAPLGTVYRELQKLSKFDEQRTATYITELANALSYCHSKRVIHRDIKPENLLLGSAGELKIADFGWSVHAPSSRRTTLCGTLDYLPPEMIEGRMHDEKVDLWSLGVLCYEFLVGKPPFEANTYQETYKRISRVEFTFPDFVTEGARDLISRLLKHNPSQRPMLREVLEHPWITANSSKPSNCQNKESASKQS
The experiment in a line: Probe-based (AX9989) kinase profiling in Jurkat lysate: AurA. The settings on record: screening concentration 1.0 μM; read-out: Kinase inhibition % at indicated screening concentration: AurA. How it is done: as §1, §2, §3, §4

In the next experiment the target is T3, JAK1 (Homo sapiens, UniProt P23458).
T3 construct: screened for activity against several kinases in Jurkat cells; endogenous in cells; host or cells: Jurkat cell lysate
The experiment in a line: Probe-based (AX9989) kinase profiling in Jurkat lysate: JAK1. The settings on record: screening concentration 1.0 μM; read-out: Kinase inhibition % at indicated screening concentration: JAK1. How it is done:
as §1, §2, §3, §4

For the next experiment, the system named is AMPKa1 or AMPKa2. The experiment in a line: Probe-based (AX9989) kinase profiling in Jurkat lysate: AMPKa1 or AMPKa2. Conditions: screening concentration 1.0 μM. How it is done:
as §1, §2, §3, §4

The next experiment concerns AurB or AurC. The experiment in a line: Probe-based (AX9989) kinase profiling in Jurkat lysate: AurB or AurC. The settings on record: screening concentration 1.0 μM. The procedure:
as §1, §2, §3, §4

The next experiment addresses T4, TAO2 (Homo sapiens, UniProt Q9UL54).
T4 construct: screened for activity against several kinases in Jurkat cells; endogenous in cells; host or cells: Jurkat cell lysate
T4 sequence (Q9UL54 1-1235): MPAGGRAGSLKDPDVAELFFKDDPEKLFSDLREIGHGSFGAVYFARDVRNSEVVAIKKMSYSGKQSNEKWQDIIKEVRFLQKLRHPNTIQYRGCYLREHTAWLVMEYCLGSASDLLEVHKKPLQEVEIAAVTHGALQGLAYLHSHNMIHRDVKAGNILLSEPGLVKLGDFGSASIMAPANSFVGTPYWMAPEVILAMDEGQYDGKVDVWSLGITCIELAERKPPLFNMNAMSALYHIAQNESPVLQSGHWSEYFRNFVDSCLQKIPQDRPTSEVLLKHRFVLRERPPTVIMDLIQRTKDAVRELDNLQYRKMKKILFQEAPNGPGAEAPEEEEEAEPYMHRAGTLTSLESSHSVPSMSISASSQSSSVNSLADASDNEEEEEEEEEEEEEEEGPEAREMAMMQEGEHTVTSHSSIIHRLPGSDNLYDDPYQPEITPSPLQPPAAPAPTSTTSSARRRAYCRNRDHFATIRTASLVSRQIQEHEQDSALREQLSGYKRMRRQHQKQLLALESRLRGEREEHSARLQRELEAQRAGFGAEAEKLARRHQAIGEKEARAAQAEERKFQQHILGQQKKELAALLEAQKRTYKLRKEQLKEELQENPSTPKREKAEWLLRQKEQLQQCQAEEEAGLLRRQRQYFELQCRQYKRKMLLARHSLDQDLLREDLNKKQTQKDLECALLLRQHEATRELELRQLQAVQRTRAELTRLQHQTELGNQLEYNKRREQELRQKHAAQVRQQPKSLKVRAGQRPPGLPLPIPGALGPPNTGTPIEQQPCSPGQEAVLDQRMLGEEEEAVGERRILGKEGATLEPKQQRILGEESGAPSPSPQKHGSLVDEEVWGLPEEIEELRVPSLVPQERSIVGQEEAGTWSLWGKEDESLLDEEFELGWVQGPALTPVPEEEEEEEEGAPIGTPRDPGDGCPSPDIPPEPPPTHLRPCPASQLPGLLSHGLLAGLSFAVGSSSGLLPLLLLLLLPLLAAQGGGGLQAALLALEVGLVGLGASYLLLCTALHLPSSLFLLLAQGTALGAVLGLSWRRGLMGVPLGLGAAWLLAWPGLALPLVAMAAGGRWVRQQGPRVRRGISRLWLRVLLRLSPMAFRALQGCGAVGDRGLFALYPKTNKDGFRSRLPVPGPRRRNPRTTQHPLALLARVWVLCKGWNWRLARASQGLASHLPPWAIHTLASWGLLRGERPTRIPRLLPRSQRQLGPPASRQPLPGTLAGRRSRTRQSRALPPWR
The experiment in a line: Probe-based (AX9989) kinase profiling in Jurkat lysate: TAO2. Conditions: screening concentration 1.0 μM; read-out: Kinase inhibition % at indicated screening concentration: TAO2. The procedure:
as §1, §2, §3, §4

In the next experiment the test system is ABL or ARG. The experiment in a line: Probe-based (AX9989) kinase profiling in Jurkat lysate: ABL or ARG. Conditions: screening concentration 1.0 μM. How it is done:
as §1, §2, §3, §4

The target in a further experiment is T5, ACK (Homo sapiens, UniProt Q07912).
T5 construct: screened for activity against several kinases in Jurkat cells; endogenous in cells; host or cells: Jurkat cell lysate
The experiment in a line: Probe-based (AX9989) kinase profiling in Jurkat lysate: ACK. Conditions: screening concentration 1.0 μM; read-out: Kinase inhibition % at indicated screening concentration: ACK. How it is done:
as §1, §2, §3, §4

T5 sequence (Q07912 whole entry): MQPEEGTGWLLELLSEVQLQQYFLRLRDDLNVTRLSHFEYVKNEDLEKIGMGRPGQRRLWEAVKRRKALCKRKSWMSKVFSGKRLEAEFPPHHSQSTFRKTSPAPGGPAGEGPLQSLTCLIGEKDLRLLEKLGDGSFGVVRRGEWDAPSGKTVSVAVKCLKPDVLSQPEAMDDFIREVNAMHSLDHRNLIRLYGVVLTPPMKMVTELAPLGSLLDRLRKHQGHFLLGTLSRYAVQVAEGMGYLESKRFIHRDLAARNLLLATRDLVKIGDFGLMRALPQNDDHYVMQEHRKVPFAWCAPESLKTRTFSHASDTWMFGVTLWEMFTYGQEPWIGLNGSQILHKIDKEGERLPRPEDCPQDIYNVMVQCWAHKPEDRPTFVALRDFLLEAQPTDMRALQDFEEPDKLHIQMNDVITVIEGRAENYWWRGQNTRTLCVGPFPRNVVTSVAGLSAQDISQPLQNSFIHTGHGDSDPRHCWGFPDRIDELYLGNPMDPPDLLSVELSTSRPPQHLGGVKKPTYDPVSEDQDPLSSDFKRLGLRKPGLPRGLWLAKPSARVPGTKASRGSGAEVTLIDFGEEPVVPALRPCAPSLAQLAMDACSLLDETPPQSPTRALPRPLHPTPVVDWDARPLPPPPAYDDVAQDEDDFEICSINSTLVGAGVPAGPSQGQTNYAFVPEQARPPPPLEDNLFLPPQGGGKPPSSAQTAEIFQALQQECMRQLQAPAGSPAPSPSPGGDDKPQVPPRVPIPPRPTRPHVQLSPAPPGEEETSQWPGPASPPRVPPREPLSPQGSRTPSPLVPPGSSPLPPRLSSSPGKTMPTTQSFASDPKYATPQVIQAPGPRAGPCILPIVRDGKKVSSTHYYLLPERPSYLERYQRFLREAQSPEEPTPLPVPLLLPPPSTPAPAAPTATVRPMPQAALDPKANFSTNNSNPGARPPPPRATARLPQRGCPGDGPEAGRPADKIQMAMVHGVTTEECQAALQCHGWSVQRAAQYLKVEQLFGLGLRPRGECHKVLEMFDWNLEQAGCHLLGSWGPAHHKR
T1 sequence (Q13164 whole entry): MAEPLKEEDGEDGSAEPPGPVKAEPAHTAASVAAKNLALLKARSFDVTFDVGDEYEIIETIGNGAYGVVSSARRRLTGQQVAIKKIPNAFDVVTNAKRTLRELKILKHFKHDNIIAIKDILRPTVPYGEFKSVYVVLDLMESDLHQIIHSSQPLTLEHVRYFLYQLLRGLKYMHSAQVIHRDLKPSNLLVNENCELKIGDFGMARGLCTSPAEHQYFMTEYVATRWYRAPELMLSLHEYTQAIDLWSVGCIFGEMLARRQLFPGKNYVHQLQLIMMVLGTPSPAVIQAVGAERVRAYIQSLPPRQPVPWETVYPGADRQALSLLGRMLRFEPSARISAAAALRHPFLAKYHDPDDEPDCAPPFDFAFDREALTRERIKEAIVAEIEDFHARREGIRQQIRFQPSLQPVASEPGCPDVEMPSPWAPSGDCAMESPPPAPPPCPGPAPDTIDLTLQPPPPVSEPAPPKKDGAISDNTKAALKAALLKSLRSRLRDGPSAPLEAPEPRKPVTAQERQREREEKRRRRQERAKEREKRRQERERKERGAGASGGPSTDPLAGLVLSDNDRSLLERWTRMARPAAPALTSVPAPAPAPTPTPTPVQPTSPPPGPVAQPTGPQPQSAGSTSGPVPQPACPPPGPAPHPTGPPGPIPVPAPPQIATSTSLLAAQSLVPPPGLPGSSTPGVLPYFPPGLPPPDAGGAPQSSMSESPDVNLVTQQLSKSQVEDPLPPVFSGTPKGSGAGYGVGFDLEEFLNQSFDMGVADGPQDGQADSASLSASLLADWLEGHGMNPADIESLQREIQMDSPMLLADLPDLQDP
T3 sequence (P23458 whole entry): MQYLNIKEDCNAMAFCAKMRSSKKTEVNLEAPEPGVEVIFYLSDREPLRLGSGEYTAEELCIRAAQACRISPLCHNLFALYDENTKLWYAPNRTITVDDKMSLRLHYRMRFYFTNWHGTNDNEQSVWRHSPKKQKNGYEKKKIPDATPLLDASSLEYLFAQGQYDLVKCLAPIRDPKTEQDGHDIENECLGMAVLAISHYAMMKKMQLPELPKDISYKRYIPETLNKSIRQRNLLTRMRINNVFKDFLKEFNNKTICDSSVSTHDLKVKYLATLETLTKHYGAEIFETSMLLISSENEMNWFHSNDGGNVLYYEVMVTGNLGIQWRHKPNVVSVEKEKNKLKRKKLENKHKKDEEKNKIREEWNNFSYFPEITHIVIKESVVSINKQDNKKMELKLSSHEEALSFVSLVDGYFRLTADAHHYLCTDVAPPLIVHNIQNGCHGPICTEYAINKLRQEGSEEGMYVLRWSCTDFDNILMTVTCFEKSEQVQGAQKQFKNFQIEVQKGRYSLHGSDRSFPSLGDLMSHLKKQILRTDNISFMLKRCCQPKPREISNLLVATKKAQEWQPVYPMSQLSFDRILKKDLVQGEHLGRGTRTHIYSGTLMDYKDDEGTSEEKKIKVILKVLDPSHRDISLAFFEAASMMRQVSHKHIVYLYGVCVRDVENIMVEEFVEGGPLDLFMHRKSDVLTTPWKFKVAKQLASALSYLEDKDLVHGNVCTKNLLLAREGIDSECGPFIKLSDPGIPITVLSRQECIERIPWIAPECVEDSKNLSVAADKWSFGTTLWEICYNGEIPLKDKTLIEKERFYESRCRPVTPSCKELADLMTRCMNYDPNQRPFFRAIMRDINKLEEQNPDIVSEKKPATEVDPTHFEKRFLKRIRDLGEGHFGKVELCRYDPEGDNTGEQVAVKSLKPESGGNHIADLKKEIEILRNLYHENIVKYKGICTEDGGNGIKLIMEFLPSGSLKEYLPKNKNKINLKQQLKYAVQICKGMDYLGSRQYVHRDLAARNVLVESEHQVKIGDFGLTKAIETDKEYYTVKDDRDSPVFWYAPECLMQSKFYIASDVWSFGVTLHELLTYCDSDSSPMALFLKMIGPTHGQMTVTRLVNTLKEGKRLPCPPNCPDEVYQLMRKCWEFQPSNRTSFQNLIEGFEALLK

Broadly, the IC50 is the midpoint of a concentration-inhibition curve. Consider `COC(=O)[C@H]1CC[C@H](Nc2cc3c(cn2)N(C)C(=O)c2ccccc2N3C)CC1` [Compound 81], for which, at ERK5, the IC50 was more than 500 nM. The inhibition at 1 µM is 50 to 75% at ERK5; not above 35% on AurA; not above 35% at JAK1; not above 35% at TAO2; not above 35% on ACK. In the experiment on AMPKa1 or AMPKa2, the “Kinase inhibition % at indicated screening concentration: AMPKa1 or AMPKa2” value (“Kinase inhibition % … AMPKa1 or AMPKa2” below) is listed as “E (E is ≦35%)”. Further, the “Kinase inhibition % at indicated screening concentration: AurB or AurC” value (“Kinase inhibition % … AurB or AurC” for short) in the experiment on AurB or AurC is on record as “E (E is ≦35%)”. In addition, the “Kinase inhibition % at indicated screening concentration: ABL or ARG” value (from here on “Kinase inhibition % … ABL or ARG”) in the experiment on ABL or ARG was “E (E is ≦35%)”.

Regarding `CN1C(=O)c2ccccc2N(C)c2cc(Nc3ccccc3Cl)ncc21` [Compound 86], on ERK5, the IC50 is more than 500 nM. Moreover, the inhibition at 1 µM on ERK5 is 50 to 75%; at AurA, not above 35%; at JAK1, not above 35%; at TAO2, not above 35%; at ACK it was not above 35%. In addition, the “Kinase inhibition % … AMPKa1 or AMPKa2” value in the experiment on AMPKa1 or AMPKa2 is listed as “E (E is ≦35%)”. The “Kinase inhibition % … AurB or AurC” value in the experiment with AurB or AurC is on record as “E (E is ≦35%)”. Further, the “Kinase inhibition % … ABL or ARG” value with ABL or ARG is reported as “E (E is ≦35%)”.

Turning to `COc1ccc(C(=O)N2CCNCC2)cc1Nc1cc2c(cn1)N(C)C(=O)c1ccccc1N2C` [Compound 87], on ERK5, the IC50 is 101 to 500 nM. Besides, the inhibition at 1 µM at ERK5 is 50 to 75%; at AurA, not above 35%; at JAK1, not above 35%; on TAO2 it was not above 35%; at ACK, not above 35%. The “Kinase inhibition % … AMPKa1 or AMPKa2” value with AMPKa1 or AMPKa2 is recorded as “E (E is ≦35%)”. Moreover, the “Kinase inhibition % … AurB or AurC” value with AurB or AurC is given as “E (E is ≦35%)”. Further, the “Kinase inhibition % … ABL or ARG” value in the experiment with ABL or ARG is reported as “E (E is ≦35%)”.

For `CN1C(=O)C2CCCCC2N(C)c2cc(NC3CCC(N)CC3)ncc21` (stereo not drawn) [Compound 97], on ERK5, the IC50 is more than 500 nM. In addition, the inhibition at 1 µM at ERK5, at AurA, at JAK1, on TAO2 and at ACK was not above 35% in each case. Besides, the “Kinase inhibition % … AMPKa1 or AMPKa2” value with AMPKa1 or AMPKa2 is “E (E is ≦35%)”. In the experiment on AurB or AurC, the “Kinase inhibition % … AurB or AurC” value is “E (E is ≦35%)”. Also, the “Kinase inhibition % … ABL or ARG” value with ABL or ARG is “E (E is ≦35%)”.
